Tests used:
Assay type in all cases: cell-based
[1] = target: Protein arginine N-methyltransferase 5 (Homo sapiens) (UniProt O14744); assay: Inhibition of PRMT5 in human HepG2_hNTCP cells transfected with constant amounts of HBc-HA assessed as decrease in intensity of methylation of SmD3 at 0.5 to 500 nM incubated for 72 hrs by Western blot analysis; conditions: HepG2-hNTCP, dose 0.5-500 nM
[2] = target: Protein arginine N-methyltransferase 5 (Homo sapiens) (UniProt O14744); assay: Inhibition of PRMT5 in human HepG2_hNTCP cells transfected with constant amounts of HBc-HA assessed as reduction in symmetric arginine dimethylation of HBc at 0.5 to 500 nM incubated for 72 hrs by Western blot analysis; conditions: HepG2-hNTCP, dose 0.5-500 nM
[3] = target: Protein arginine N-methyltransferase 5 (Homo sapiens) (UniProt O14744); assay: Inhibition of PRMT5 in human HepG2_hNTCP cells transfected with constant amounts of HBc-HA assessed as decrease in intensity of methylation of SmB/B' at 0.5 to 500 nM incubated for 72 hrs by Western blot analysis; conditions: HepG2-hNTCP, dose 0.5-500 nM
[4] = target: Protein arginine N-methyltransferase 5 (Homo sapiens) (UniProt O14744); assay: Inhibition of PRMT5 in human HepG2_hNTCP cells transfected with constant amounts of HBc-HA assessed as reduction in symmetric arginine dimethylation of HBc at 5 nM incubated for 72 hrs by Western blot analysis relative to control; conditions: HepG2-hNTCP

Chain of Protein arginine N-methyltransferase 5 (Homo sapiens) (O14744 whole entry): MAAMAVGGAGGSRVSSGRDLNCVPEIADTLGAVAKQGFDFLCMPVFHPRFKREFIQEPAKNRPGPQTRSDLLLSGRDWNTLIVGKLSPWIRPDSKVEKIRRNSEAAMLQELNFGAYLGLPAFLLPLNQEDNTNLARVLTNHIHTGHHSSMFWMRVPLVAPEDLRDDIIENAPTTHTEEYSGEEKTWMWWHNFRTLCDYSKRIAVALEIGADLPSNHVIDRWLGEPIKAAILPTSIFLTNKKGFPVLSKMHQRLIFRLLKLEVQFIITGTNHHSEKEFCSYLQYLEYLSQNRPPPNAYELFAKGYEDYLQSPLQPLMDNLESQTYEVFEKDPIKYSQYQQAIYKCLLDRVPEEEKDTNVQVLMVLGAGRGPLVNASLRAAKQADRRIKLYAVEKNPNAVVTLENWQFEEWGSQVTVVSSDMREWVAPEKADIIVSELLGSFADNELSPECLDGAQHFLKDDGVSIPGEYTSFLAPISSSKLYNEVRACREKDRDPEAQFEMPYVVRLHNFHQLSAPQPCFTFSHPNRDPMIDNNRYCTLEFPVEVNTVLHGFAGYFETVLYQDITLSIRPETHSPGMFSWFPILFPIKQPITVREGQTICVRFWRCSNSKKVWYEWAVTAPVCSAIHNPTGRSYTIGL

inhibition [1]: Dose-Dependent Effect | inhibition [2]: Dose-Dependent Effect | inhibition [3]: Dose-Dependent Effect | fold change (FC) [4]: 0.5
Structure (SMILES): O=C(NC[C@H](O)CN1CCc2ccccc2C1)c1ccnc(NC2CCC2)c1

From ChEMBL document CHEMBL5674877, “PRMT5: A novel regulator of Hepatitis B virus replication and an arginine methylase of HBV core” (PLoS One, 2017)
